Assay results as given in paper PMC6175062, “Gaining Mechanistic Insight Into Coproporphyrin I as Endogenous Biomarker for OATP1B‐Mediated Drug–Drug Interactions Using Population Pharmacokinetic Modeling and Simulation” (Clinical Pharmacology and Therapeutics, 2018).
Where two headings read alike, the source gives them in different places.

Experiments:
[1] = Population PK model of rifampicin plasma data, healthy subjects; assay type: in vivo, human; details: single 600-mg oral dose
Method: Individual plasma and urine data were obtained from a previous study in 12 healthy male subjects.6 The study was split into three occasions (OCC1–3) with a 7‐day washout period between OCC1 and 2 and OCC2 and 3. During each occasion, baseline CPI urine and plasma samples were collected (Figure S2). A single 600‐mg oral dose of RIF and a single 5‐mg oral dose of RSV were administered to the volunteers in OCC1 and OCC2, respectively. Finally, in OCC3 the same respective doses of RIF and RSV were coadministered to healthy volunteers. Plasma (RIF, RSV, and CPI) were collected at predefined timepoints over the 24‐h period following administration of RIF and/or RSV. Urine samples were collected over one time interval (−7 to 0 h) for the pretreatment sample (CPI monitored) and two subsequent intervals (0–7 h and 7–24 h) for posttreatment samples of CPI and RSV. The total number of plasma samples for modeling purposes were 276 (OCC1 = 144, OCC3 = 132), 420 (OCC1 = 144, OCC2 = 144, OCC3 = 132), and 264 (OCC2 = 132, OCC3 = 132) for RIF, CPI, and RSV, respectively, whereas the total number of urine samples were 102 (pretreatment = 34, posttreatment = 68) and 44 for CPI and RSV, respectively. No subjects enrolled in the clinical study had OATP1B1*5 or OATP1B1*15 mutations, associated with altered OATP1B1 activity.
Population PK models were developed sequentially for analysis of RIF, CPI, and RSV plasma and urine data using nonlinear mixed‐effects modeling software, NONMEM, with first‐order conditional estimation method.32 Statistical analysis, GOF plots, and other graphical analysis were conducted in MATLAB. The structural models for RIF and RSV (Supplementary Material) were selected based on population PK models available in the literature.34, 35 An exponential model was used to describe interindividual variability random‐effects parameters and IOV was evaluated for the model parameters; occasions were defined as periods of different visits following recruitment or washout periods. Covariates and random‐effects parameters (IIV and IOV) were retained in the models when there was a significant change in objective function and improvement in GOF plots. The incorporation of IIV and IOV in the models is shown in Equation 2: (2) θik=θ⋅e^ηi+κik where θ ik is the parameter for i^th individual on k^th occasion, θ is the population (typical individual) parameter, η i is the parameter that describes the deviation of the i^th individual parameter from the population (IIV), and k ik the parameter that describes the deviation of the i^th individual from the population in addition to η ik at the k^th occasion (IOV). Both random effect parameters (η ik and k ik) are assumed to be randomly distributed with a mean of zero and the variances are estimated during analysis. Proportional or additive or combination of proportional and additive residual error models were investigated for the residuals.
Based on a previously developed population PK model for RIF, a one compartment first order elimination model with transit absorption model was used to describe plasma concentrations of RIF (12). This model was parameterised using clearance (CL), volume of distribution (V), absorption rate constant (ka), mean transit time (MTT) and number of transit compartments (n). In order to account for the interaction between RIF and CPI and RIF and RSV, sequential analysis of plasma and urine data was conducted. […]

OATP1B = experiment: Model-based rifampicin in vivo OATP Ki using CPI as probe; set-up: species or system human; details: for Ki: human, plasma, oral, 600 mg, probe CPI (endogenous biomarker)
Method: The plasma concentrations of the endogenous biomarker CPI were described using a turnover model (Equation 3).36 Simultaneous fitting of individual CPI plasma and urine data in the presence and absence of RIF was performed. In the final model, RIF inhibited biliary elimination (CL b,CPI) of CPI, whereas its renal clearance (CL R,CPI) and k syn were not affected. The rate of change of CPI plasma concentration under baseline and RIF condition is shown in Equations 3 and 4, respectively, whereas change in CPI amount in urine over time is shown in Equation 5. (3) dCCPI/dt=[ksyn−CLb,CPI⋅CCPI−CLR,CPI⋅CCPI]⋅1/VCPI (4) dCCPI/dt=[ksyn−CLb,CPI⋅CCPI/1+CRIF/KiCPI−CLR,CPI⋅CCPI]⋅1/VCPI (5) dUCPI/dt=CLR,CPI⋅CCPI where C CPI is its plasma concentration, U CPI is the CPI amount in urine, t is time, k syn is the zero‐order synthesis rate, Ki CPI is RIF transporter inhibition constant using CPI as a probe, V CPI is the volume of distribution of CPI and C RIF is RIF plasma concentration (linked to RIF model). Simulations were also performed to assess the consequences of the hypothetical inhibition of both CPI synthesis (k syn and biliary elimination (CL b,CPI) by inhibitor of interest (details in Supplementary Material).

OATP1B1 = experiment: Literature rifampicin in vitro Ki/IC50 in transfected OATP1B1 cells; assay type: cell-based
Excerpt: In addition, literature reported in vitro RIF inhibition data in OATP1B1-transfected cell lines using either CPI or other OATP1B1 probes (Table S5) were collated to understand further any potential differences between in vitro and in vivo estimated RIF inhibition parameters.

OATP1B3 = tested on: OATP1B3; set-up: method as in earlier work; details: ref (3, 4), cited from earlier work
OATP2B1 = tested on: OATP2B1; set-up: method as in PMID 24617605, PMID 20102298; details: inconsistent data; read-out: IC50, OATP2B1 inhibition; cited from earlier work
OATP [2] = details: inhibitor 600 mg, rosuvastatin 5 mg; ref (20); cited from earlier work
OATP [3] = biological target: OATP; set-up: method as in PMID 27170342; details: cited from earlier work
[4] = set-up: method as in PMID 25813937; details: in humans; cited from earlier work

## CO[C@H]1/C=C/O[C@@]2(C)Oc3c(C)c(O)c4c(O)c(c(/C=N/N5CCN(C)CC5)c(O)c4c3C2=O)NC(=O)/C(C)=C\C=C\[C@H](C)[C@H](O)[C@@H](C)[C@@H](O)[C@@H](C)[C@H](OC(C)=O)[C@@H]1C [rifampicin]
[1]
  CL, population estimate: 3.97 L/h
  MTT (mean transit time), population estimate: 0.74 h
  V, population estimate: 24.7 L
  n (number of transit compartments), population estimate: 8.63
[1]; 12 healthy males
  ka, population estimate: 2.09 h⁻¹
OATP1B; CPI-based Ki lower
  difference between unbound in vivo Ki from CPI and from RSV: 2 fold
OATP1B; corrected for rifampicin fu plasma 0.11, read-out: in vivo unbound OATP Ki using CPI data
  Ki: 0.13 µM
OATP1B; total (not corrected for fu), CPI as probe, read-out: KiCPI, total Ki estimated by the model, population estimate (SE%)
  Ki: 1.15 µM
OATP1B1
  range in literature RIF IC50 (Table S5): 30 fold
OATP1B1; depending on in vitro probe
  difference between in vivo Ki and literature in vitro data in OATP1B1-transfected cells: up to 50 fold
OATP1B3; read-out: IC50, OATP1B3 transfected cells, CPI as substrate
  IC50: 0.25 to 1.61 µM
OATP1B3; read-out: IC50, OATP1B3 transfected cells, CPIII as substrate
  IC50: 0.27 to 1.41 µM
OATP2B1
  IC50: 2.1 to 81 µM
OATP [2]
  Fold Change in AUC of rosuvastatin: 4.7 fold
OATP [3]; read-out: in vivo Ki estimated from pitavastatin clinical data
  Ki: 0.23 µM
OATP [3]; read-out: in vivo Ki estimated from pravastatin clinical data
  Ki: 0.19 µM
[4]
  unbound liver-to-plasma concentration ratio: 3.3
